# Data published in US9499550B2 (BRISTOL-MYERS SQUIBB COMPANY, priority 2012, dated 2016).
# Like-named read-outs stand apart in the source and are kept apart here.
# Legend:
# [1] = tested on: HCV genotype 1a (H77 strain) replicon in HUH-7 cells; experiment: HCV replicon luciferase reporter assay, genotype 1a; assay type: cell-based; settings: Hepatitis C virus, Huh-7, 72 h, HCV genotype 1a replicon luciferase, 3 days incubation
# Outline: (§1)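 Replicon inhibition for both genotypes was measured as Renilla luciferase signal (EnduRen, 7.5 μM final, 2 h) after 3-day, 37° C exposure of replicon-bearing HUH-7 cells in 4% FCS DMEM, 0.5% DMSO. The 1b construct carries S1179I; the 1a H77 construct carries P1496L and S2204I. Twenty-point, 3-fold dilutions were fitted four-parametrically for EC50, and CC50 was taken from multiplexed Cell Titer-Blue.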
# [2] = tested on: HCV genotype 1b (Con1) replicon in HUH-7 cells; experiment: HCV replicon luciferase reporter assay, genotype 1b; assay type: cell-based; settings: Hepatitis C virus, Huh-7, 72 h, HCV genotype 1b replicon luciferase, 3 days incubation
# Outline: as §1
Structure (SMILES),"EC50 ([1]; read-out: LE_1a (EC50, range)) [nM]","EC50 ([2]; read-out: LE_1b (EC50, range)) [nM]",EC50 ([1]; read-out: LE_1a (EC50)) [nM],EC50 ([2]; read-out: LE_1b (EC50)) [nM]
"C[C@H]1CC/C=C\[C@@H]2C[C@@]2(C(=O)NS(=O)(=O)C2(C)CC2)NC(=O)[C@@H]2C[C@@H](Oc3nccc4c5c(ccc34)N(C)CCO5)CN2C(=O)[C@@H](NC(=O)O[C@@H]2C[C@@H]3C[C@@H]3C2)[C@H](C)C1 [Compound 5299, (1R,3r,5S)-bicyclo[3.1.0]hexan-3-yl((2R,6S,7R,9S,13aS,14aR,16aS,Z)-7,9-dimethyl-2-((4-methyl-3,4-dihydro-2H-[1,4]oxazino[2,3-f]isoquinolin-7-yl)oxy)-14a-(((1-methylcyclopropyl)sulfonyl)carbamoyl)-5,16-dioxo-1,2,3,5,6,7,8,9,10,11,13a,14,14a,15,16,16a-hexadecahydrocyclopropa[e]pyrrolo[1,2-a][1,4]diazacyclopentadecin-6-yl)carbamate]",< 5.46,< 5.46,–,–
"C[C@@H]1CC/C=C\[C@@H]2C[C@@]2(C(=O)NS(=O)(=O)C2(C)CC2)NC(=O)[C@@H]2C[C@@H](Oc3nccc4c5c(ccc34)N(C)CCO5)CN2C(=O)[C@@H](NC(=O)O[C@@H]2C[C@@H]3C[C@@H]3C2)[C@H](C)C1 [Compound 5300, (1R,3r,5S)-bicyclo[3.1.0]hexan-3-yl((2R,6S,7R,9R,13aS,14aR,16aS,Z)-7,9-dimethyl-2-((4-methyl-3,4-dihydro-2H-[1,4]oxazino[2,3-f]isoquinolin-7-yl)oxy)-14a-(((1-methylcyclopropyl)sulfonyl)carbamoyl)-5,16-dioxo-1,2,3,5,6,7,8,9,10,11,13a,14,14a,15,16,16a-hexadecahydrocyclopropa[e]pyrrolo[1,2-a][1,4]diazacyclopentadecin-6-yl)carbamate]",< 5.46,< 5.46,–,–
"C[C@H]1CC/C=C\[C@@H]2C[C@@]2(C(=O)NS(=O)(=O)C2(C)CC2)NC(=O)[C@@H]2C[C@@H](Oc3nccc4c5c(ccc34)N(C)CCO5)CN2C(=O)[C@@H](NC(=O)NC(C)(C)C)[C@H](C)C1 [Compound 5301, (2R,6S,7R,9S,13aS,14aR,16aS,Z)-6-(3-(tert-butyl)ureido)-7,9-dimethyl-2-((4-methyl-3,4-dihydro-2H-[1,4]oxazino[2,3-f]isoquinolin-7-yl)oxy)-N-((1-methylcyclopropyl)sulfonyl)-5,16-dioxo-1,2,3,5,6,7,8,9,10,11,13a,14,14a,15,16,16a-hexadecahydrocyclopropa[e]pyrrolo[1,2-a][1,4]diazacyclopentadecine-14a-carboxamide]",4.82 to 103,< 5.46,–,–
"C[C@@H]1CC/C=C\[C@@H]2C[C@@]2(C(=O)NS(=O)(=O)C2(C)CC2)NC(=O)[C@@H]2C[C@@H](Oc3nccc4c5c(ccc34)N(C)CCO5)CN2C(=O)[C@@H](NC(=O)NC(C)(C)C)[C@H](C)C1 [Compound 5302, (2R,6S,7R,9R,13aS,14aR,16aS,Z)-6-(3-(tert-butyl)ureido)-7,9-dimethyl-2-((4-methyl-3,4-dihydro-2H-[1,4]oxazino[2,3-f]isoquinolin-7-yl)oxy)-N-((1-methylcyclopropyl)sulfonyl)-5,16-dioxo-1,2,3,5,6,7,8,9,10,11,13a,14,14a,15,16,16a-hexadecahydrocyclopropa[e]pyrrolo[1,2-a][1,4]diazacyclopentadecine-14a-carboxamide]",< 5.46,< 5.46,–,–
"C[C@H]1CC/C=C\[C@@H]2C[C@@]2(C(=O)NS(=O)(=O)C2(C)CC2)NC(=O)[C@@H]2C[C@@H](Oc3nccc4c5c(ccc34)N(C)CCO5)CN2C(=O)[C@@H](NC(=O)c2ccc(N(C)C)cc2)[C@H](C)C1 [Compound 5303, (2R,6S,7R,9S,13aS,14aR,16aS,Z)-6-(4-(dimethylamino)benzamido)-7,9-dimethyl-2-((4-methyl-3,4-dihydro-2H-[1,4]oxazino[2,3-f]isoquinolin-7-yl)oxy)-N-((1-methylcyclopropyl)sulfonyl)-5,16-dioxo-1,2,3,5,6,7,8,9,10,11,13a,14,14a,15,16,16a-hexadecahydrocyclopropa[e]pyrrolo[1,2-a][1,4]diazacyclopentadecine-14a-carboxamide]",4.82 to 103,< 5.46,–,–
"C[C@@H]1CC/C=C\[C@@H]2C[C@@]2(C(=O)NS(=O)(=O)C2(C)CC2)NC(=O)[C@@H]2C[C@@H](Oc3nccc4c5c(ccc34)N(C)CCO5)CN2C(=O)[C@@H](NC(=O)c2ccc(N(C)C)cc2)[C@H](C)C1 [Compound 5304, (2R,6S,7R,9R,13aS,14aR,16aS,Z)-6-(4-(dimethylamino)benzamido)-7,9-dimethyl-2-((4-methyl-3,4-dihydro-2H-[1,4]oxazino[2,3-f]isoquinolin-7-yl)oxy)-N-((1-methylcyclopropyl)sulfonyl)-5,16-dioxo-1,2,3,5,6,7,8,9,10,11,13a,14,14a,15,16,16a-hexadecahydrocyclopropa[e]pyrrolo[1,2-a][1,4]diazacyclopentadecine-14a-carboxamide]",< 5.46,< 5.46,–,–
"C[C@H]1CC/C=C\[C@@H]2C[C@@]2(C(=O)NS(=O)(=O)C2(C)CC2)NC(=O)[C@@H]2C[C@@H](Oc3nccc4c5c(ccc34)N(C)CCO5)CN2C(=O)[C@@H](NC(=O)C(=O)N(C)C)[C@H](C)C1 [Compound 5305, N1-((2R,6S,7R,9S,13aS,14aR,16aS,Z)-7,9-dimethyl-2-((4-methyl-3,4-dihydro-2H-[1,4]oxazino[2,3-f]isoquinolin-7-yl)oxy)-14a-(((1-methylcyclopropyl)sulfonyl)carbamoyl)-5,16-dioxo-1,2,3,5,6,7,8,9,10,11,13a,14,14a,15,16,16a-hexadecahydrocyclopropa[e]pyrrolo[1,2-a][1,4]diazacyclopentadecin-6-yl)-N2,N2-dimethyloxalamide]",4.82 to 103,4.82 to 103,–,–
"C[C@@H]1CC/C=C\[C@@H]2C[C@@]2(C(=O)NS(=O)(=O)C2(C)CC2)NC(=O)[C@@H]2C[C@@H](Oc3nccc4c5c(ccc34)N(C)CCO5)CN2C(=O)[C@@H](NC(=O)C(=O)N(C)C)[C@H](C)C1 [Compound 5306, N1-((2R,6S,7R,9R,13aS,14aR,16aS,Z)-7,9-dimethyl-2-((4-methyl-3,4-dihydro-2H-[1,4]oxazino[2,3-f]isoquinolin-7-yl)oxy)-14a-(((1-methylcyclopropyl)sulfonyl)carbamoyl)-5,16-dioxo-1,2,3,5,6,7,8,9,10,11,13a,14,14a,15,16,16a-hexadecahydrocyclopropa[e]pyrrolo[1,2-a][1,4]diazacyclopentadecin-6-yl)-N2,N2-dimethyloxalamide]",< 5.46,< 5.46,2.97,2.45
"CC[C@@H]1C[C@@H](C)CC/C=C\[C@@H]2C[C@@]2(C(=O)NS(=O)(=O)C2CC2)NC(=O)[C@@H]2C[C@@H](Oc3nccc4c5c(ccc34)N(C)CCO5)CN2C(=O)[C@H]1NC(=O)OC(C)(C)C [Compound 5307, tert-butyl ((2R,6S,7R,9S,13aS,14aR,16aS,Z)-14a-((cyclopropylsulfonyl)carbamoyl)-7-ethyl-9-methyl-2-((4-methyl-3,4-dihydro-2H-[1,4]oxazino[2,3-f]isoquinolin-7-yl)oxy)-5,16-dioxo-1,2,3,5,6,7,8,9,10,11,13a,14,14a,15,16,16a-hexadecahydrocyclopropa[e]pyrrolo[1,2-a][1,4]diazacyclopentadecin-6-yl)carbamate]",4.82 to 103,< 5.46,–,–
"CC[C@@H]1C[C@H](C)CC/C=C\[C@@H]2C[C@@]2(C(=O)NS(=O)(=O)C2CC2)NC(=O)[C@@H]2C[C@@H](Oc3nccc4c5c(ccc34)N(C)CCO5)CN2C(=O)[C@H]1NC(=O)OC(C)(C)C [Compound 5308, tert-butyl ((2R,6S,7R,9R,13aS,14aR,16aS,Z)-14a-((cyclopropylsulfonyl)carbamoyl)-7-ethyl-9-methyl-2-((4-methyl-3,4-dihydro-2H-[1,4]oxazino[2,3-f]isoquinolin-7-yl)oxy)-5,16-dioxo-1,2,3,5,6,7,8,9,10,11,13a,14,14a,15,16,16a-hexadecahydrocyclopropa[e]pyrrolo[1,2-a][1,4]diazacyclopentadecin-6-yl)carbamate]",< 5.46,< 5.46,–,–
"CC[C@@H]1C[C@@H](C)CC/C=C\[C@@H]2C[C@@]2(C(=O)NS(=O)(=O)C2CC2)NC(=O)[C@@H]2C[C@@H](Oc3nccc4c5c(ccc34)N(C)CCO5)CN2C(=O)[C@H]1NC(=O)OC(C)(C)C(F)(F)F [Compound 5309, 1,1,1-trifluoro-2-methylpropan-2-yl((2R,6S,7R,9S,13aS,14aR,16aS,Z)-14a-((cyclopropylsulfonyl)carbamoyl)-7-ethyl-9-methyl-2-((4-methyl-3,4-dihydro-2H-[1,4]oxazino[2,3-f]isoquinolin-7-yl)oxy)-5,16-dioxo-1,2,3,5,6,7,8,9,10,11,13a,14,14a,15,16,16a-hexadecahydrocyclopropa[e]pyrrolo[1,2-a][1,4]diazacyclopentadecin-6-yl)carbamate]",4.82 to 103,< 5.46,–,–
"CC[C@@H]1C[C@H](C)CC/C=C\[C@@H]2C[C@@]2(C(=O)NS(=O)(=O)C2CC2)NC(=O)[C@@H]2C[C@@H](Oc3nccc4c5c(ccc34)N(C)CCO5)CN2C(=O)[C@H]1NC(=O)OC(C)(C)C(F)(F)F [Compound 5310, 1,1,1-trifluoro-2-methylpropan-2-yl((2R,6S,7R,9R,13aS,14aR,16aS,Z)-14a-((cyclopropylsulfonyl)carbamoyl)-7-ethyl-9-methyl-2-((4-methyl-3,4-dihydro-2H-[1,4]oxazino[2,3-f]isoquinolin-7-yl)oxy)-5,16-dioxo-1,2,3,5,6,7,8,9,10,11,13a,14,14a,15,16,16a-hexadecahydrocyclopropa[e]pyrrolo[1,2-a][1,4]diazacyclopentadecin-6-yl)carbamate]",< 5.46,< 5.46,–,–
